The values below come from ChEMBL document CHEMBL1909046, “DrugMatrix in vitro pharmacology data”.

One data set concerns the target T1, Cytochrome P450 2A6 (Homo sapiens, UniProt P11509). Note: in other assays of this panel Not Active means under 50% inhibition at 10 µM.
T1 sequence (P11509 whole entry): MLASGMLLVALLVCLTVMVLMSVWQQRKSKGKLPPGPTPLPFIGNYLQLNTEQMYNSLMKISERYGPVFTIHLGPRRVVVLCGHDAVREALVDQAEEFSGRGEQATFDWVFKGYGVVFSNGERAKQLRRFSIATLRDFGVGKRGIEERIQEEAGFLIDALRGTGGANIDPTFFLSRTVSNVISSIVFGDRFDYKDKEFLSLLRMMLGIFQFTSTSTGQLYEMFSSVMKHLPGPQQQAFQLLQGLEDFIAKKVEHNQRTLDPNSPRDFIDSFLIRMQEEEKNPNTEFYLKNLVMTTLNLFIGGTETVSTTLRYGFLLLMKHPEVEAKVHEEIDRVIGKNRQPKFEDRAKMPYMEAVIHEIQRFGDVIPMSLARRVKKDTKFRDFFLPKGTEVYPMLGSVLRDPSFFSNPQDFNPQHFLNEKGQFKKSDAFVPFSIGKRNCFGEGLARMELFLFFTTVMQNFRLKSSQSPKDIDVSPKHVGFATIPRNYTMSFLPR
Particulars: bti-tn-5b1-4.

The target of another data set is T2, Leukotriene C4 synthase (Cavia porcellus, UniProt A6XA80).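 Note: enzyme inhibition assay of leukotriene C4 synthase, using LTA4 as the substrate; in other assays of this panel Not Active means under 50% inhibition at 10 µM.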
T2 sequence (A6XA80 whole entry): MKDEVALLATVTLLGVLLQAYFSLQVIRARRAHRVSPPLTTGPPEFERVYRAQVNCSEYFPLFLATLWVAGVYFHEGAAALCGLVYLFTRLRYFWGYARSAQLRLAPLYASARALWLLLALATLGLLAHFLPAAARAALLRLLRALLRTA
Briefly: biochemical. The format is tissue-based, Lung.

For data set [1], the target named is T3, 5-hydroxytryptamine receptor 1A (Rattus norvegicus, UniProt P19327). Note: in other assays of this panel Not Active means under 50% inhibition at 10 µM.
T3 sequence (P19327 whole entry): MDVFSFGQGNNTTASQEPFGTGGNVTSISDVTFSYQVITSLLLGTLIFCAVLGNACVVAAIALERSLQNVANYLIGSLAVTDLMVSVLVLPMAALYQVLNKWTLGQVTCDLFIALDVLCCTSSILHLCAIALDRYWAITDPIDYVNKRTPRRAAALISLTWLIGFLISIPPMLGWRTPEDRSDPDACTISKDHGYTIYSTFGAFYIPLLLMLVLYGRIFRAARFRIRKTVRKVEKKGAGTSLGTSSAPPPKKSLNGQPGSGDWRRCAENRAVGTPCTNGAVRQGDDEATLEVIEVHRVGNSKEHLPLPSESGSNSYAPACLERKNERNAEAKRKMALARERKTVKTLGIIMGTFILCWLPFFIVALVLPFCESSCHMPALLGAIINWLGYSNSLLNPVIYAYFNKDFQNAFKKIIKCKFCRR
It counts as cell membranes, CHO-K1, Membrane.

Data set [2] deals with Aldo-keto reductase family 1 member B1 (Rattus norvegicus, UniProt P07943). It counts as tissue-based, Lens of camera-type eye.
Data set [3] deals with T4, Muscarinic acetylcholine receptor M5 (Homo sapiens, UniProt P08912).
T4 sequence (P08912 whole entry): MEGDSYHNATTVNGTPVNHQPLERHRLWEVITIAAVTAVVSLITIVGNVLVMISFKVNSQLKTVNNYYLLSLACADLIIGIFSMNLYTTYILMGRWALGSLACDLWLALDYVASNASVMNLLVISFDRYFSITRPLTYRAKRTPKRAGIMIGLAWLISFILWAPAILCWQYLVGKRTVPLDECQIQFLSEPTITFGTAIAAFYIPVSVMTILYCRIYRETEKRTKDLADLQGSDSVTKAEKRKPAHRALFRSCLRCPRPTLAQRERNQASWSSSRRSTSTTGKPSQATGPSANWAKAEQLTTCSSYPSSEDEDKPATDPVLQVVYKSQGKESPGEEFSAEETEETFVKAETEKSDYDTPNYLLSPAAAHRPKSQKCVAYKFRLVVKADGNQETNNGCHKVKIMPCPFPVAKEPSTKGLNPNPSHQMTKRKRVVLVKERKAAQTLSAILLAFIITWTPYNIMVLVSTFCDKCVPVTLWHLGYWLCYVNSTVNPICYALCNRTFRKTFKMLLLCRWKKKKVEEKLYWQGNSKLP
It counts as cell membranes, CHO-K1, Membrane.

The target in another data set is Insulin receptor (Rattus norvegicus, UniProt P15127). The format is cell membranes, Wistar, Liver, Membrane. Note: in other assays of this panel Not Active means under 50% inhibition at 10 µM.
Data set [4] has as its target Delta-type opioid receptor (Homo sapiens, UniProt P41143). The format is cell membranes, HEK293, Membrane. Note: in other assays of this panel Not Active means under 50% inhibition at 10 µM.
For a further data set, the target named is Melanocortin receptor 3 (Homo sapiens, UniProt P41968). The format is cell membranes, Membrane. The note with it: hek293. Note: in other assays of this panel Not Active means under 50% inhibition at 10 µM.
In data set [5] the target is T5, 5-hydroxytryptamine receptor 2C (Homo sapiens, UniProt P28335).
T5 sequence (P28335 whole entry): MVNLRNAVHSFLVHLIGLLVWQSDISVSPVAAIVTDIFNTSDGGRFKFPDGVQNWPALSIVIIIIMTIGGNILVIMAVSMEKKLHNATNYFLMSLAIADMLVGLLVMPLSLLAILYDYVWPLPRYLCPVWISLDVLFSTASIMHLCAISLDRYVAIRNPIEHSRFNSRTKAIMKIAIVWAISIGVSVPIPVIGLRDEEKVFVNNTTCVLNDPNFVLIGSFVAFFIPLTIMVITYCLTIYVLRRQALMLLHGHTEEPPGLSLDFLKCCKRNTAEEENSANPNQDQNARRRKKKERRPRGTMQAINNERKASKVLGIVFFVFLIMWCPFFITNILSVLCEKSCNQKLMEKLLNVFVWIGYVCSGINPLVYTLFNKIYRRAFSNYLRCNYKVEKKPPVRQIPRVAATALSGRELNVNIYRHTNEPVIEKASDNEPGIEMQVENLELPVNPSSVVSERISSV
In words: DRUGMATRIX: Serotonin (5-Hydroxytryptamine) 5-HT2C radioligand binding (ligand: [3H] Mesulergine). It counts as cell membranes, CHO-K1, Membrane. The note with it: Not Active = under 50% inhibition at 10 µM.

The nature of data set [6]: DRUGMATRIX: Glutamate, NMDA, Agonism radioligand binding (ligand: [3H] CGP-39653). It counts as cell membranes, Rattus norvegicus, Wistar, Cerebral cortex, Membrane. Particulars: Not Active = under 50% inhibition at 10 µM.
Data set [7] in a line: DRUGMATRIX: Leukotriene, BLT (LTB4) radioligand binding (ligand: [3H]LTB4). Particulars: u-937; Not Active = under 50% inhibition at 10 µM. The format is cell membranes, Membrane.
The nature of data set [8]: DRUGMATRIX: Serotonin (5-Hydroxytryptamine) 5-HT3 radioligand binding (ligand: [3H] GR-65630). It counts as cell membranes, Membrane. The note with it: hek293; Not Active = under 50% inhibition at 10 µM.
Data set [9] is described as follows: DRUGMATRIX: GABAA, Chloride Channel, TBOB radioligand binding (ligand: [3H] TBOB). Particulars: Not Active = under 50% inhibition at 10 µM. The format is cell membranes, Rattus norvegicus, Wistar, Cerebral cortex, Membrane.

SMILES strings stand for the structures.

Melanocortin receptor 3, sequence (P41968 whole entry): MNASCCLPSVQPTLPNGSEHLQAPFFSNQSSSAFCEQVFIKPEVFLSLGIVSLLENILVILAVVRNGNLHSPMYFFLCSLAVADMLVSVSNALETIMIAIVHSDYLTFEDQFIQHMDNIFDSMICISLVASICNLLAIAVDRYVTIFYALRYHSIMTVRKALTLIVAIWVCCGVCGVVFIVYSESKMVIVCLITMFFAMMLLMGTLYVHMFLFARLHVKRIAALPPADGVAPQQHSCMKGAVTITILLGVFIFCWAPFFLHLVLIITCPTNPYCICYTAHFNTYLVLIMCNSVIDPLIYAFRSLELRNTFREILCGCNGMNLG
Delta-type opioid receptor, sequence (P41143 whole entry): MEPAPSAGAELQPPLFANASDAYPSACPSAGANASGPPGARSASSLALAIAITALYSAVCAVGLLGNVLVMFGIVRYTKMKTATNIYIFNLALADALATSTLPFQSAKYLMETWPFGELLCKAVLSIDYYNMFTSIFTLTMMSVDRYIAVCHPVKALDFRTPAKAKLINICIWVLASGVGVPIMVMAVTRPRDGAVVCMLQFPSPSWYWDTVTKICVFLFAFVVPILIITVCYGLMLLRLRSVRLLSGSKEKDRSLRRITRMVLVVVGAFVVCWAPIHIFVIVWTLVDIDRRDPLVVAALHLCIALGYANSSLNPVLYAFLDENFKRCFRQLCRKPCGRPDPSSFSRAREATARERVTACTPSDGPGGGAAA
Insulin receptor, sequence (P15127 27-759 limits assumed): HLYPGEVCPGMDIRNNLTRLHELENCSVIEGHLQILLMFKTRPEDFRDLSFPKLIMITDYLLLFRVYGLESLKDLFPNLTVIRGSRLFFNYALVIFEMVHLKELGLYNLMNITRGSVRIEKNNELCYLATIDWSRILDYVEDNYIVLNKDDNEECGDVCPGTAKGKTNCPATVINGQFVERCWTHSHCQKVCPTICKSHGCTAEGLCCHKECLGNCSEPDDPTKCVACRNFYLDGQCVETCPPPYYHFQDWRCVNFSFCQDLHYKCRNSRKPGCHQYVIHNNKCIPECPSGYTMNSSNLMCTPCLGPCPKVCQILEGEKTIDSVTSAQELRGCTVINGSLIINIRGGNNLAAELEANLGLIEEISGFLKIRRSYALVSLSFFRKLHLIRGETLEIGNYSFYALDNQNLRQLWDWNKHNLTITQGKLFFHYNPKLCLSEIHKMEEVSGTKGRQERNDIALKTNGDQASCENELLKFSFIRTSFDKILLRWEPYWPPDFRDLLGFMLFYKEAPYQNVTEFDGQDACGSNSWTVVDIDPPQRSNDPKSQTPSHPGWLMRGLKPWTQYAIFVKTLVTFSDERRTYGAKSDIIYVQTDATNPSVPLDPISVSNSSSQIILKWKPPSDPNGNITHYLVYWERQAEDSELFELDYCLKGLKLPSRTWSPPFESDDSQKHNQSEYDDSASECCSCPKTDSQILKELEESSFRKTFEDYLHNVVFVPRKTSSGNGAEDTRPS
Insulin receptor, sequence (P15127 764-1383 limits assumed): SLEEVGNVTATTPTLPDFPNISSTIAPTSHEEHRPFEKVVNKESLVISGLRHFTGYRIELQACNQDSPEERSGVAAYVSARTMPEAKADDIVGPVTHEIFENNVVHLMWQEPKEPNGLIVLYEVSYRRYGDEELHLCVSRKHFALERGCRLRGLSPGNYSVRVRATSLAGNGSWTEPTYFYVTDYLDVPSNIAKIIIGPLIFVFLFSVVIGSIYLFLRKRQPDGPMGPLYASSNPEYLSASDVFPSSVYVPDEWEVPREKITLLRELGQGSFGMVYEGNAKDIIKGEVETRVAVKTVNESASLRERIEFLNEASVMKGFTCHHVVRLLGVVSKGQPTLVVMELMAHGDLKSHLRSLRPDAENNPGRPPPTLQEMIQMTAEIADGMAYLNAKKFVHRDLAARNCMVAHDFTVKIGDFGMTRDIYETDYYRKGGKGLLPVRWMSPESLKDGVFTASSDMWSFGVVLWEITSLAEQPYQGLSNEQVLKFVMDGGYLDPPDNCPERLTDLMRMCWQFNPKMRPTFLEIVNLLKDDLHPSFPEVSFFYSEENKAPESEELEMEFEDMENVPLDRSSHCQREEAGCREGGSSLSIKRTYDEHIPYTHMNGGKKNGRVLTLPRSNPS

Usually IC50 stands for the concentration that inhibits the measured activity by half. By Ki is commonly meant the equilibrium dissociation constant of an inhibitor or competing ligand from its target. For the molecule `COc1ccc(CCN2CCC(Nc3nc4ccccc4n3Cc3ccc(F)cc3)CC2)cc1` [ASTEMIZOLE], the IC50 entry on Cytochrome P450 2A6 was “Not Active”; at Leukotriene C4 synthase, “Not Active”; in [1] (read-out: IC50), 0.767 µM; in data set [2] it was “Not Active”; in data set [3] (read-out: IC50), 0.703 µM; against Insulin receptor, “Not Active”. The Ki entry on Cytochrome P450 2A6 was “Not Active”; in data set [1] (read-out: Ki) it was 0.438 µM; in data set [3] (read-out: Ki), 0.505 µM.
In the case of `Clc1ccccc1C(c1ccccc1)(c1ccccc1)n1ccnc1` [CLOTRIMAZOLE], the IC50 in data set [4] (read-out: IC50) is 4.98 µM; at Cytochrome P450 2A6, “Not Active”; against Leukotriene C4 synthase, “Not Active”; in [1] (read-out: IC50), 17.7 µM; in [2], “Not Active”; against Melanocortin receptor 3, “Not Active”. The figures for the IC50 entry (against Insulin receptor; in data set [5] (read-out: IC50)) were “Not Active” and 14.5 µM, respectively. Besides, the Ki in data set [4] (read-out: Ki) was 1.76 µM; at Cytochrome P450 2A6, “Not Active”; in data set [1] (read-out: Ki) it was 10.1 µM; in data set [5] (read-out: Ki), 7.58 µM.
Regarding `O=C(CCCN1CCC(O)(c2ccc(Cl)cc2)CC1)c1ccc(F)cc1` [HALOPERIDOL], the IC50 entry (in data set [4] (hek293); at Cytochrome P450 2A6; on Leukotriene C4 synthase; in data set [1] (cho-k1); in [2]; on Melanocortin receptor 3) was “Not Active” in each case. For the same molecule, the IC50 result at Insulin receptor is reported as “Not Active”. Also, on Cytochrome P450 2A6, the Ki result is “Not Active”.
In the case of `NNc1ccccc1` [PHENYLHYDRAZINE], the IC50 entry (in data set [4] (hek293); in [6]; against Cytochrome P450 2A6; against Leukotriene C4 synthase; in [1] (cho-k1); in data set [7]) was “Not Active” each time. The IC50 result (in data set [2]; in data set [3] (cho-k1); in data set [8]; at Melanocortin receptor 3; on Insulin receptor; in data set [5] (cho-k1)) was “Not Active” each time. The IC50 entry in data set [9] was “Not Active”. The Ki result (in data set [6]; at Cytochrome P450 2A6; in data set [7]; in data set [8]; in data set [9]) was “Not Active” in each case.
In the case of `O=[N+]([O-])c1cc([As](=O)(O)O)ccc1O` [ROXARSONE], the IC50 entry (in [4] (hek293); in data set [6]; on Cytochrome P450 2A6; at Leukotriene C4 synthase; in data set [1] (cho-k1); in [7]) was “Not Active” throughout. The IC50 entry (in data set [2]; in [3] (cho-k1); in data set [8]; on Melanocortin receptor 3; against Insulin receptor; in data set [5] (cho-k1)) was “Not Active” in each case. Moreover, in data set [9], the IC50 result is “Not Active”. Further, the Ki result (in data set [4] (hek293); in [6]; at Cytochrome P450 2A6; on Leukotriene C4 synthase; in [1] (cho-k1); in data set [7]) was “Not Active” in each case. Further, the Ki result (in [2]; in data set [3] (cho-k1); in [8]; at Melanocortin receptor 3; on Insulin receptor; in data set [5] (cho-k1)) was “Not Active” in each case. In addition, in data set [9], the Ki entry is reported as “Not Active”.
In the case of `COc1cccc(C2(O)CCCCC2CN(C)C)c1` (stereo unspecified) [TRAMADOL], the IC50 result (in data set [4] (hek293); against Cytochrome P450 2A6; at Leukotriene C4 synthase; in [1] (cho-k1); in data set [2]; in data set [3] (cho-k1)) was “Not Active” in each case. Besides, the IC50 result (against Melanocortin receptor 3; against Insulin receptor; in data set [5] (cho-k1)) was “Not Active” throughout. In addition, the Ki entry at Cytochrome P450 2A6 is given as “Not Active”.
Take `COc1ccc(C(CN(C)C)C2(O)CCCCC2)cc1` (stereo unspecified) [VENLAFAXINE]: the IC50 entry (in data set [4] (hek293); in [6]; against Cytochrome P450 2A6; on Leukotriene C4 synthase; in [1] (cho-k1); in data set [7]) was “Not Active” each time. Further, the IC50 entry (in data set [2]; in [3] (cho-k1); in data set [8]; against Melanocortin receptor 3; on Insulin receptor; in data set [5] (cho-k1)) was “Not Active” each time. In data set [9], the IC50 entry is “Not Active”. Further, the Ki result (in data set [6]; at Cytochrome P450 2A6; in data set [7]; in data set [8]; in data set [9]) was “Not Active” throughout.
